Assay results published in patent US12404283B2, “c-MYC mRNA translation modulators and uses thereof in the treatment of cancer” (Anima Biotech Inc., priority 2022, dated 2025).
Where a name gives a salt, the structure may show the parent alone.

System: c-Myc
Assay: c-Myc immunofluorescence assay
Type: cell-based, human
Details: A549 cells, 24 hours treatment, anti-c-Myc immunofluorescence
Protocol: A549 human non-small cell lung carcinoma cells were treated for 24 hours with increasing compound concentration, cells were fixed and stained with a nuclei stain (DAPI) and anti-c-Myc fluorescent antibody. The c-Myc signal was quantified by image analysis, and data was exported and analyzed using TIBCO Spotfire® (TIBCO Corporation). Dose response curves were generated and fitted with logaristic regression to calculate potency (EC50 values). Potency values are presented in Table 2 for all compounds and are shown for selected compounds (FIG. 4).
A549 cells were grown in 384-wells plates (Perkin Elmer, Cat. 6057300) for 48 hours, treated with compounds and then fixed for 20 min in 4% paraformaldehyde. After that permeabilization was done using 0.1% Triton X-100 in PBS for 20 min. Primary anti-c-Myc antibody (Abcam, ab32072) staining was performed for 90 min at room temperature. Cells then were washed twice with PBS and incubated with secondary antibody (Abcam, ab150075) for 90 min at room temperature. Nuclei were stained with DAPI for 10 min and washed twice with PBS.
Cell images were taken with Operetta (Perkin Elmer, USA), a wide-field fluorescence microscope at 20× magnification. After acquisition, the images were transferred to Columbus software (Perkin-Elmer) for image analysis. In Columbus, cells were identified by their nucleus, using the “Find Nuceli” module and cytoplasm was detected based on the secondary antibody channel. Subsequently, the fluorescent signal was enumerated in the identified cell region. Then data was exported to a data analysis and visualization software, Tibco Spotfire, USA.

SMILES | Myc Efficacy (−LogEC50)
CO[C@H]1CN[C@@H](c2ccc(-c3cn4c(n3)sc3cc(C(=O)NCCCN5CCC(F)CC5)ccc34)c(F)c2)C1 (relative stereo) [Compound 523, 2-(2-fluoro-4-((cis)-4-methoxypyrrolidin-2-yl)phenyl)-N-(3-(4-fluoropiperidin-1-yl)propyl)benzo[d]imidazo[2,1-b]thiazole-7-carboxamide] | +++ (+++ ≥6)
CO[C@H]1CN[C@@H](c2ccc(-c3cn4c(n3)sc3cc(C(=O)NC5CCN(C)CC5)ccc34)c(F)c2)C1 (relative stereo) [Compound 532, 2-(2-fluoro-4-((cis)-4-methoxypyrrolidin-2-yl)phenyl)-N-(1-methylpiperidin-4-yl)benzo[d]imidazo[2,1-b]thiazole-7-carboxamide] | +++ (+++ ≥6)
O=C(NC1CCOCC1)c1ccc2c(c1)sc1nc(-c3ccc([C@H]4C[C@@H](O)CN4)cc3F)cn12 (relative stereo) [Compound 533, 2-(2-fluoro-4-((cis)-4-hydroxypyrrolidin-2-yl)phenyl)-N-(tetrahydro-2H-pyran-4-yl)benzo[d]imidazo[2,1-b]thiazole-7-carboxamide] | +++ (+++ ≥6)
O=C(NC1CCOCC1)c1ccc2c(c1)sc1nc(-c3ccc([C@H]4C[C@H](O)CN4)cc3F)cn12 (relative stereo) [Compound 538, 2-(2-fluoro-4-((trans)-4-hydroxypyrrolidin-2-yl)phenyl)-N-(tetrahydro-2H-pyran-4-yl)benzo[d]imidazo[2,1-b]thiazole-7-carboxamide] | +++ (+++ ≥6)
CNC(=O)c1ccc2c(c1)sc1nc(-c3ccc([C@H]4C[C@H](O)CN4)cc3F)cn12 (relative stereo) [Compound 544, 2-(2-fluoro-4-((trans)-4-hydroxypyrrolidin-2-yl)phenyl)-N-methylbenzo[d]imidazo[2,1-b]thiazole-7-carboxamide] | +++ (+++ ≥6)
O=C(N[C@@H]1CCOC1)c1ccc2c(c1)sc1nc(-c3ccc(C4CCCN4)cc3F)cn12 (stereo partly drawn) [524R, 2-(2-fluoro-4-(pyrrolidin-2-yl)phenyl)-N-((R)-tetrahydrofuran-3-yl)benzo[d]imidazo[2,1-b]thiazole-7-carboxamide] | ++ (++ ≥5 and <6)
O=C(N[C@H]1CCOC1)c1ccc2c(c1)sc1nc(-c3ccc(C4CCCN4)cc3F)cn12 (stereo partly drawn) [524S, 2-(2-fluoro-4-(pyrrolidin-2-yl)phenyl)-N-((S)-tetrahydrofuran-3-yl)benzo[d]imidazo[2,1-b]thiazole-7-carboxamide] | ++ (++ ≥5 and <6)
O=C(NCCCN1CCC(F)CC1)c1ccc2c(c1)sc1nc(-c3ccc([C@H]4CCCO4)cc3F)cn12 [Compound 428R, (R)-2-(2-fluoro-4-(tetrahydrofuran-2-yl)phenyl)-N-(3-(4-fluoropiperidin-1-yl)propyl)benzo[d]imidazo[2,1-b]thiazole-7-carboxamide] | ++ (++ ≥5 and <6)
O=C(NCCCN1CCC(F)CC1)c1ccc2c(c1)sc1nc(-c3ccc([C@@H]4CCCO4)cc3F)cn12 [Compound 428S, (S)-2-(2-fluoro-4-(tetrahydrofuran-2-yl)phenyl)-N-(3-(4-fluoropiperidin-1-yl)propyl)benzo[d]imidazo[2,1-b]thiazole-7-carboxamide] | +++ (+++ ≥6)
O=C1CC[C@H](c2ccc(-c3cn4c(n3)sc3cc(C(=O)NCCCN5CCC(F)CC5)ccc34)c(F)c2)N1 [Compound 432R, (R)-2-(2-fluoro-4-(5-oxopyrrolidin-2-yl)phenyl)-N-(3-(4-fluoropiperidin-1-yl)propyl)benzo[d]imidazo[2,1-b]thiazole-7-carboxamide] | +++ (+++ ≥6)
O=C1CC[C@@H](c2ccc(-c3cn4c(n3)sc3cc(C(=O)NCCCN5CCC(F)CC5)ccc34)c(F)c2)N1 [Compound 432S, (S)-2-(2-fluoro-4-(5-oxopyrrolidin-2-yl)phenyl)-N-(3-(4-fluoropiperidin-1-yl)propyl)benzo[d]imidazo[2,1-b]thiazole-7-carboxamide] | +++ (+++ ≥6)
O=C(NCCCN1CCC(F)CC1)c1ccc2c(c1)sc1nc(-c3ccc([C@H]4CCNC4)cc3F)cn12 [Compound 434R, (R)-2-(2-fluoro-4-(pyrrolidin-3-yl)phenyl)-N-(3-(4-fluoropiperidin-1-yl)propyl)benzo[d]imidazo[2,1-b]thiazole-7-carboxamide] | +++ (+++ ≥6)
O=C(NCCCN1CCC(F)CC1)c1ccc2c(c1)sc1nc(-c3ccc([C@@H]4CCNC4)cc3F)cn12 [Compound 434S, (S)-2-(2-fluoro-4-(pyrrolidin-3-yl)phenyl)-N-(3-(4-fluoropiperidin-1-yl)propyl)benzo[d]imidazo[2,1-b]thiazole-7-carboxamide] | +++ (+++ ≥6)
Cc1c(-c2ccc([C@H]3CCCN3)cc2F)nc2sc3cc(C(=O)NCCCN4CCC(F)CC4)ccc3n12 [Compound 464R, (R)-2-(2-fluoro-4-(pyrrolidin-2-yl)phenyl)-N-(3-(4-fluoropiperidin-1-yl)propyl)-3-methylbenzo[d]imidazo[2,1-b]thiazole-7-carboxamide dihydrochloride] | +++ (+++ ≥6)
Cc1c(-c2ccc([C@@H]3CCCN3)cc2F)nc2sc3cc(C(=O)NCCCN4CCC(F)CC4)ccc3n12 [Compound 464S, (S)-2-(2-fluoro-4-(pyrrolidin-2-yl)phenyl)-N-(3-(4-fluoropiperidin-1-yl)propyl)-3-methylbenzo[d]imidazo[2,1-b]thiazole-7-carboxamide dihydrochloride] | +++ (+++ ≥6)
NC1(c2ccc(-c3cn4c(n3)sc3cc(C(=O)NCCCN5CCC(F)CC5)ccc34)c(F)c2)CC1 [Compound 474, 2-(4-(1-aminocyclopropyl)-2-fluorophenyl)-N-(3-(4-fluoropiperidin-1-yl)propyl)benzo[d]imidazo[2,1-b]thiazole-7-carboxamide] | +++ (+++ ≥6)
O=C(NCCCN1CCC(F)CC1)c1ccc2c(c1)sc1nc(-c3ccc(C4CCCN4)c(F)c3F)cn12 (stereo not shown) [Compound 476, 2-(2,3-difluoro-4-(pyrrolidin-2-yl)phenyl)-N-(3-(4-fluoropiperidin-1-yl)propyl)benzo[d]imidazo[2,1-b]thiazole-7-carboxamide] | +++ (+++ ≥6)
O=C(NCCCN1CCC(F)CC1)c1ccc2c(c1)sc1nc(-c3ccc(C4CCNC4)cc3F)cn12 (stereo not shown) [Compound 479, 2-(2-fluoro-4-(pyrrolidin-3-yl)phenyl)-N-(3-(4-fluoropiperidin-1-yl)propyl)benzo[d]imidazo[2,1-b]thiazole-7-carboxamide] | +++ (+++ ≥6)
O=C(NCCCN1CCC(F)CC1)c1ccc2c(c1)sc1nc(-c3ccc(C4CCCCN4)cc3F)cn12 (stereo not shown) [Compound 480, 2-(2-fluoro-4-(piperidin-2-yl)phenyl)-N-(3-(4-fluoropiperidin-1-yl)propyl)benzo[d]imidazo[2,1-b]thiazole-7-carboxamide] | +++ (+++ ≥6)
O=C(NCCCN1CCC(F)CC1)c1ccc2c(c1)sc1nc(-c3ccc(C4COCCN4)cc3F)cn12 (stereo not shown) [Compound 481, 2-(2-fluoro-4-(morpholin-3-yl)phenyl)-N-(3-(4-fluoropiperidin-1-yl)propyl)benzo[d]imidazo[2,1-b]thiazole-7-carboxamide] | +++ (+++ ≥6)
O=C(NCCCN1CCC(F)CC1)c1ccc2c(c1)sc1nc(-c3ccc(-c4nc[nH]n4)cc3F)cn12 [Compound 483, 2-(2-fluoro-4-(1H-1,2,4-triazol-3-yl)phenyl)-N-(3-(4-fluoropiperidin-1-yl)propyl)benzo[d]imidazo[2,1-b]thiazole-7-carboxamide] | +++ (+++ ≥6)
O=C(NCCCN1CCC(F)CC1)c1ccc2c(c1)sc1nc(-c3ccc(C4CCCN4)c(F)c3)cn12 (stereo not shown) [Compound 484, 2-(3-fluoro-4-(pyrrolidin-2-yl)phenyl)-N-(3-(4-fluoropiperidin-1-yl)propyl)benzo[d]imidazo[2,1-b]thiazole-7-carboxamide] | +++ (+++ ≥6)
O=C(NCCCN1CCC(F)CC1)c1ccc2c(c1)sc1nc(-c3ccc(C4CC(F)(F)CN4)cc3F)cn12 (stereo not shown) [Compound 490, 2-(4-(4,4-difluoropyrrolidin-2-yl)-2-fluorophenyl)-N-(3-(4-fluoropiperidin-1-yl)propyl)benzo[d]imidazo[2,1-b]thiazole-7-carboxamide] | +++ (+++ ≥6)
CN1CCC[C@@H](NC(=O)c2ccc3c(c2)sc2nc(-c4ccc(C5CCCN5)cc4F)cn23)C1 (stereo partly drawn) [Compound 491R, 2-(2-fluoro-4-(pyrrolidin-2-yl)phenyl)-N—((R)-1-methylpiperidin-3-yl)benzo[d]imidazo[2,1-b]thiazole-7-carboxamide] | +++ (+++ ≥6)
CN1CCC[C@H](NC(=O)c2ccc3c(c2)sc2nc(-c4ccc(C5CCCN5)cc4F)cn23)C1 (stereo partly drawn) [Compound 491S, 2-(2-fluoro-4-(pyrrolidin-2-yl)phenyl)-N—((S)-1-methylpiperidin-3-yl)benzo[d]imidazo[2,1-b]thiazole-7-carboxamide] | +++ (+++ ≥6)
